# From patent US6303761A, “Triaminepentaacetic acid compound and paramagnetic metal complex prepared from using the compound as ligand” (Department of Health The Executive Yuan, Republic of China, priority 1999, dated 2001)
# Values joined by “and” are separate entries in the source; they are usually repeats but may differ in a detail not shown here. Identical values can stand only once. Like-named read-outs stand apart in the source and are kept apart here.
# Experiments:
# [1] = Selectivity constant of the ligand for Gd^3+ over Ca^2+; assay type: physicochemical
# [2] = Thermodynamic and conditional stability constants of the Cu^2+ complexes (potentiometric titration, program BEST); assay type: physicochemical; details: 25.0 ± 0.1° C., aqueous Me4 NNO3, I = 0.10 mol dm^-3
# Description: (§1) The pH electrode was calibrated using two standard buffer solutions with pH 7.0±0.05 and pH 4.0±0.05 respectively. The ionic strength was 0.10 mol dm^-3 Me4 NNO3 ((CH3)4 NNO3). […] The titrant used was 0.1 mol dm^-3 NaOH with a titration amount of 0.005 ml/time.
# (§2) (1) Direct Potentiometric Titration: The metal ion and ligand is mixed in 1:1 molar ratio.
# (§3) (2) Ligand-ligand Competition Titration: The metal ion, ligand, and EDTA is mixed in 1:1:1 molar ratio.
# (§4) M: metal ion, L: organic ligand, ML: metal complex The conditional stability constant is defined by equation (2): [formula]
# (§5) The relationship between the conditional stability constant and the thermodynamic stability constant is defined by equation (3): [formula]
# (§6) K2^H [H^+ ]^2 + . . . }^-1 =KthermαH
# [3] = pM value, Gd^3+; details: pH 7.4, TL 1.1×10^-5, TM 1.0×10^-6 mol dm^-3
# [4] = Selectivity constant of the ligand for Gd^3+ over Zn^2+; assay type: physicochemical
# [5] = Selectivity constant of the ligand for Gd^3+ over Cu^2+; assay type: physicochemical
# [6] = pM value, Zn^2+; details: pH 7.4, TL 1.1×10^-5, TM 1.0×10^-6 mol dm^-3
# [7] = Thermodynamic and conditional stability constants of the Zn^2+ complexes (potentiometric titration, program BEST); assay type: physicochemical; details: 25.0 ± 0.1° C., aqueous Me4 NNO3, I = 0.10 mol dm^-3
# Description: as §1, §2, §3, §4, §5, §6
# [8] = pM value, Ca^2+; details: pH 7.4, TL 1.1×10^-5, TM 1.0×10^-6 mol dm^-3
# [9] = Thermodynamic and conditional stability constants of the Ca^2+ complexes (potentiometric titration, program BEST); assay type: physicochemical; details: 25.0 ± 0.1° C., aqueous Me4 NNO3, I = 0.10 mol dm^-3
# Description: as §1, §2, §3, §4, §5, §6
# [10] = Protonation constants of the organic ligands (potentiometric titration, program PKAS); assay type: physicochemical; details: for pKa: aqueous me4nno3, 25.0 ± 0.1° C., aqueous Me4 NNO3, I = 0.10 mol dm^-3
# Description: The ionic strength was 0.10 mol dm^-3 Me4 NNO3 ((CH3)4 NNO3). […] The titrant used was 0.1 mol dm^-3 NaOH with a titration amount of 0.005 ml/time.
# [11] = for log K [GdL]/[Gd][L]: 25.0 ± 0.1° C., aqueous Me4 NNO3, I = 0.10 mol dm^-3
# [12] = assay type: physicochemical
# [13] = Species distribution of the ligands at various pH values (SPE, SPEPLOT); assay type: physicochemical; details: 7.0×10^-3 mol dm^-3 system
# Source text: The average difference between observed and calculated -log[H^+ ] was <0.04 throughout all titrations.
# When pH=7.0, the concentration of [H2 L]^3- is the maximum (97.5%). In the pH 3-5 range, the dominant species is the third protonated species [H3 L]^2-. When pH=3.7, the concentration of [H3 L]^2- is the maximum (87.75%). […] When pH=9.8, the concentration of [HL]^4- is the maximum (77.5%). In the pH 2-3 range, the dominant species is the fourth protonated species [H4 L]^-. When pH=2.3, the concentration of [H4 L]^- is the maximum (60.9%). In the pH range greater than 11, the dominant species is the deprotonated species [L]^5-.
# When pH=2.7, the concentration of [H4 L]^- is the maximum (55.9%). In the pH 3.5-7 range, the dominant species is the third protonated species [H3 L]^2-. When pH=5, the concentration of [H3 L]^2- is the maximum (97.7%). In the pH 7-9 range, the dominant species is the second protonated species [H2 L]^3-. When pH=8.1, the concentration of [H2 L]^3- is the maximum (86.5%). […] When pH=9.9, the concentration of [HL]^4- is the maximum (71.6%). In the pH range greater than 12, the dominant species is the deprotonated species [L]^5-. In the pH range less than 2, the dominant species is the totally protonated species [H5 L].
# When pH=2.8, the concentration of [H4 L]^- is the maximum (45.9%). In the pH 3.5-7.5 range, the dominant species is the third protonated species [H3 L]^2-. When pH=5.2, the concentration of [H3 L]^2- is the maximum (99.0%). In the pH 8-9.5 range, the dominant species is the second protonated species [H2 L]^3-. When pH=8.6, the concentration of [H2 L]^3- is the maximum (78.8%). In the pH 9.5-11 range, the dominant species is the first protonated species [HL]^4-. When pH=10.1, the concentration of [HL]^4- is the maximum (67.2%). In the pH range greater than 12, the dominant species is the deprotonated species [L]^5-. In the pH range less than 2, the dominant species is the totally protonated species [H5 L].
# [14] = pM value, Cu^2+; details: pH 7.4, TL 1.1×10^-5, TM 1.0×10^-6 mol dm^-3
# [15] = in vivo; cited from earlier work
# [16] = Relaxivity R1 and its pH dependence
# [17] = system: kidney; assay: MR imaging, kidney enhancement, healthy rat; assay type: in vivo; details: 0.1 mmol/kg
# Description: (§7) Sodium pentobarbital was injected into the tail veins of […] rats (which have a healthy liver or tumorous liver) in a dosage of 40-50 mg/kg. The rats were placed on the head coil of an 1.5 T magnetic resonance imaging instrument. The T1-weighted (TR/Te, 15/6.1 msec) image was obtained by turbo field echo with the number of signal average. The field of view (FOV), the cross-sectional thickness, and the image matrix were 22 cm, 4 mm, and 128×256 respectively.
# (§8) Before injecting the contrast agent, a set of T1-weighted baseline images were taken. In the first five minutes, the images were taken at a very short time interval in order to evaluate the dynamic enhancement condition. Afterwards, the images were taken every 10, 20, 30, 40, 50, and 60 minutes in order to observe the continuous enhancement effect.
# (§9) By means of the computer software contained in the MRI instrument, the region of interest (ROI) can be determined by the operator. The signal intensities (SI) of liver, phantom, and kidney were measured. The enhancement percentage of an organ (liver or kidney) and the enhancement percentage of liver relative to kidney were calculated by the following equations. The statistical method used was Wilcoxon Signed Rank Test. [formula] [formula]
# [18] = system: liver; assay: MR imaging, liver enhancement, healthy rat; assay type: in vivo; details: 0.1 mmol/kg
# Description: as §7, §8, §9
compound,measurement,setting,value
"O=C(O)CN(CCCN(CC(=O)O)CC(=O)O)CCN(CC(=O)O)CC(=O)O [TTDA, 3,6,10-tri(carboxymethyl)-3,6,10-triazadodecanedioic acid]",selectivity constant log K(Gd/Ca),[1],8.32
same,log K [CuHL]/[CuL][H],[2],5.52
same,log K [CuL]/[Cu][L],[2],19.31
same,pM (Gd^3+),[3],17.03
same,selectivity constant log K(Gd/Zn),[4],4.18
same,selectivity constant log K(Gd/Cu),[5],3.46
same,pM (Zn^2+),[6],13.22
same,log K [ZnHL]/[ZnL][H],[7],7.41
same,pM (Ca^2+),[8],9.73
same,log K [CaHL]/[CaL][H],[9],6.06
same,"basicity, Σ PKa",[10],27.44
same,pKa,"[10]; read-out: first protonation constant log K1^H, [HL]/[L][H]",10.6
same,pKa,"[10]; read-out: fourth protonation constant log K4^H, [H4 L]/[H3 L][H]",2.8
same,pKa,"[10]; read-out: second protonation constant log K2^H, [H2 L]/[HL][H]",8.92
same,pKa,"[10]; read-out: third protonation constant log K3^H, [H3 L]/[H2 L][H]",5.12
same,log K [GdL]/[Gd][L],[11],22.77
same,conditional stability constant log KGdL',[11]; pH 7.4,18.04
same,modified selectivity constant log K sel',"[12]; pH 7.4, plasma concentrations of Ca^2+, Cu^2+ and Zn^2+",8.44
same,maximum concentration of first protonated species [HL]^4-,[13],77.5%
same,maximum concentration of fourth protonated species [H4 L]^-,[13],60.9%
same,maximum concentration of second protonated species [H2 L]^3-,[13],97.5%
same,maximum concentration of third protonated species [H3 L]^2-,[13],87.75%
same,pH of maximum concentration of [H2 L]^3-,[13],7.0 pH
same,pH of maximum concentration of [H3 L]^2-,[13],3.7 pH
same,pH of maximum concentration of [H4 L]^-,[13],2.3 pH
same,pH of maximum concentration of [HL]^4-,[13],9.8 pH
same,pH range in which [H2 L]^3- is dominant,[13],5-9 pH
same,pH range in which [H3 L]^2- is dominant,[13],3-5 pH
same,pH range in which [H4 L]^- is dominant,[13],2-3 pH
same,pH range in which [HL]^4- is dominant,[13],9-10.5 pH
same,pH range in which deprotonated species [L]^5- is dominant,[13],greater than 11 pH
same,pM (Cu^2+),[14],13.58
O=C([O-])CN(CCN(CC(=O)[O-])CC(=O)[O-])CCN(CC(=O)[O-])CC(=O)[O-].[Gd+3] [[Gd(DTPA)]^2-],LD50,[15],5.6 mmol/kg
same,Relaxivity R1,[16]; pH 7.5 ± 0.1,3.71 dm^3 mmol^-1 s^-1 and 3.71 ± 0.05 dm^3 mmol^-1 s^-1
same,Relaxivity R1 (conclusion),[16]; pH not given,3.70 dm^3 mmol^-1 s^-1
same,time to maximum kidney enhancement,[17],1 min
same,kidney enhancement at 30 minutes,[17]; 30 minutes,109±14%
same,log K [GdL]/[Gd][L],[11],22.46
same,conditional stability constant (log Kcond),[11]; pH 4,11.25
same,stability constant larger than that of [Gd(DTPA-BMA)] by,[11]; pH 7.4,3.2
same,stability constant under physiological conditions (pH 7.4),[11]; pH 7.4,22.46
same,stability constant (log KML) larger than that of [Gd(DTPA-BMA)] by,[11]; pH 11,5.5
same,time to maximum liver enhancement,[18],≤ 1 min
same,liver enhancement after 30 minutes,[18]; 30 minutes,24±7%
same,maximum liver enhancement,[18]; within 1 minute,57±9%
same,modified selectivity constant log K sel',[12]; pH 7.4,7.07 and 7.04
